Experimental data: patent US7767665B2, “1,3-benzothiazinone derivatives and use thereof” (Takeda Pharmaceutical Company Limited, priority 2001, dated 2010)

melting point | SMILES
199.7 to 199.9 °C | Cc1ccnc(-c2nc(=O)c3ccccc3s2)c1 [Example 138, 2-(4-Methyl-2-pyridyl)-4H-1,3-benzothiazine-4-one]
150.5 to 150.9 °C | CCc1cccc(-c2nc(=O)c3ccccc3s2)n1 [Example 140, 2-(6-Ethyl-2-pyridyl)-4H-1,3-benzothiazine-4-one]
207.6 to 207.9 °C | Nc1ccnc(-c2nc(=O)c3ccccc3s2)c1 [Example 142, 2-(4-Amino-2-pyridyl)-4H-1,3-benzothiazine-4-one]
193.2 to 193.3 °C | CCN(CC)C(=O)c1ccc(-c2nc(=O)c3ccccc3s2)nc1 [Example 144, N,N-Diethyl-6-(4-oxo-4H-1,3-benzothiazin-2-yl)nicotinamide]
276.3 to 276.7 °C | CC(=O)c1ccc(-c2nc(=O)c3ccccc3s2)nc1 [Example 145, 2-(5-Acetyl-2-pyridyl)-4H-1,3-benzothiazine-4-one]
175.5 to 177.6 °C | CC(C)(C)OC(=O)/C=C/c1cccc(-c2nc(=O)c3ccccc3s2)n1 [Example 147, tert-Butyl (E)-3-[6-(4-oxo-4H-1,3-benzothiazin-2-yl)-2-pyridyl]-2-propenoate]
115.6 to 115.7 °C | O=C(O)/C=C/c1cccc(-c2nc(=O)c3ccccc3s2)n1 [Example 148, (E)-3-[6-(4-oxo-4H-1,3-benzothiazin-2-yl)-2-pyridyl]-2-prop enoic acid]
181.5 to 182.1 °C | CC[S+]([O-])c1cccc(-c2nc(=O)c3ccccc3s2)n1 (stereo not shown) [Example 149, 2-[6-(Ethylsulfinyl)-2-pyridyl]-4H-1,3-benzothiazine-4-one]
201.5 to 203 °C | CCS(=O)(=O)c1cccc(-c2nc(=O)c3ccccc3s2)n1 [Example 150, 2-[6-(Ethylsulfonyl)-2-pyridyl]-4H-1,3-benzothiazine-4-one]
205 to 206 °C | CC(C)S(=O)(=O)c1cccc(-c2nc(=O)c3ccccc3s2)n1 [Example 152, 2-[6-(Isopropylsulfonyl)-2-pyridyl]-4H-1,3-benzothiazine-4-one]
180.5 °C (dec.) | CC(C)(C)[S+]([O-])c1cccc(-c2nc(=O)c3ccccc3s2)n1 (stereo not shown) [Example 153, 2-[6-(tert-Butylsulfinyl)-2-pyridyl]-4H-1,3-benzothiazine-4-one]
233.6 to 234.7 °C | CC(C)(C)S(=O)(=O)c1cccc(-c2nc(=O)c3ccccc3s2)n1 [Example 154, 2-[6-(tert-Butylsulfonyl)-2-pyridyl]-4H-1,3-benzothiazine-4-one]
146 to 147 °C | CCCCC[S+]([O-])c1cccc(-c2nc(=O)c3ccccc3s2)n1 (stereo not shown) [Example 155, 2-[6(n-Pentylsulfinyl)-2-pyridyl]-4H-1,3-benzothiazine-4-one]
160 to 161 °C | CCCCCS(=O)(=O)c1cccc(-c2nc(=O)c3ccccc3s2)n1 [Example 156, 2-[6-(n-Pentylsulfonyl)-2-pyridyl]-4H-1,3-benzothiazine-4-one]
59.5 to 61 °C | CC(C)CC[S+]([O-])c1cccc(-c2nc(=O)c3ccccc3s2)n1 (stereo not shown) [Example 157, 2-(6-Isoamylsulfinyl-2-pyridyl)-4H-1,3-benzothiazine-4-one]
145.5 to 147 °C | CC(C)CCS(=O)(=O)c1cccc(-c2nc(=O)c3ccccc3s2)n1 [Example 158, 2-(6-Isoamylsulfonyl-2-pyridyl)-4H-1,3-benzothiazine-4-one]
227 to 228 °C | O=c1nc(-c2cccc(SCc3ccccc3)n2)sc2ccccc12 [Example 159, 2-(6-Benzylthio-2-pyridyl)-4H-1,3-benzothiazine-4-one]
208.5 to 210 °C | O=c1nc(-c2cccc([S+]([O-])Cc3ccccc3)n2)sc2ccccc12 (stereo not shown) [Example 160, 2-(6-Benzylsulfinyl-2-pyridyl)-4H-1,3-benzothiazine-4-one]
164.5 to 165.5 °C | O=c1nc(-c2cccc([S+]([O-])CCc3ccccc3)n2)sc2ccccc12 (stereo not shown) [Example 162, 2-[6-(2-Phenylethylsulfinyl)-2-pyridyl]-4H-1,3-benzothiazine-4-one]
192.5 to 194 °C | O=c1nc(-c2cccc(SCCCc3ccccc3)n2)sc2ccccc12 [Example 164, 2-[6-(3-Phenylpropylthio)-2-pyridyl]-4H-1,3-benzothiazine-4-one]
164.5 to 165.5 °C | O=c1nc(-c2cccc([S+]([O-])CCCc3ccccc3)n2)sc2ccccc12 (stereo not shown) [Example 165, 2-[6-[(3-Phenylpropyl)sulfinyl]-2-pyridyl]-4H-1,3-benzothiazine-4-one]
151.5 to 153 °C | CSCc1cccc(-c2nc(=O)c3ccccc3s2)n1 [Example 167, 2-(6-Methylthiomethyl-2-pyridyl)-4H-1,3-benzothiazine-4-one]
184.5 to 185.5 °C | C[S+]([O-])Cc1cccc(-c2nc(=O)c3ccccc3s2)n1 (stereo not shown) [Example 168, 2-(6-Methylsulfinylmethyl-2-pyridyl)-4H-1,3-benzothiazine-4-one]
230.5 to 231.5 °C | CS(=O)(=O)Cc1cccc(-c2nc(=O)c3ccccc3s2)n1 [Example 169, 2-(6-Methylsulfonylmethyl-2-pyridyl)-4H-1,3-benzothiazine-4-one]
191.8 °C (dec.) | O=c1nc(-c2cccc(CN3CCOCC3)n2)sc2ccccc12 [Example 170, 2-[6-(4-Morpholinomethyl)-2-pyridyl]-4H-1,3-benzothiazine-4-one]

Continued, molecule first:

SMILES | melting point
O=c1nc(-c2cc(-c3ccccc3)ccn2)sc2ccccc12 [Example 137, 2-(4-Phenyl-2-pyridyl)-4H-1,3-benzothiazine-4-one] | 164.4 to 164.7 °C
O=c1nc(-c2ccc3c(n2)CCCC3)sc2ccccc12 [Example 139, 2-(5,6,7,8-Tetrahydro-2-quinolyl)-4H-1,3-benzothiazine-4-one] | 232.3 to 232.8 °C
N#Cc1ccnc(-c2nc(=O)c3ccccc3s2)c1 [Example 143, 2-(4-Cyano-2-pyridyl)-4H-1,3-benzothiazine-4-one] | 283.4 to 283.6 °C
O=c1nc(-c2cccc(S(=O)(=O)Cc3ccccc3)n2)sc2ccccc12 [Example 161, 2-[6-(Benzylsulfonyl)-2-pyridyl]-4H-1,3-benzothiazine-4-one] | 217 to 218 °C
O=c1nc(-c2cccc(S(=O)(=O)CCc3ccccc3)n2)sc2ccccc12 [Example 163, 2-[6-(2-Phenylethyl)sulfonyl-2-pyridyl]-4H-1,3-benzothiazine-4-one] | 161.5 to 163.5 °C
O=c1nc(-c2cccc(S(=O)(=O)CCCc3ccccc3)n2)sc2ccccc12 [Example 166, 2-[6-[(3-Phenylpropyl)sulfonyl]-2-pyridyl]-4H-1,3-benzothiazine-4-one] | 149.5 to 151 °C
CSc1ccc(-c2nc(=O)c3ccccc3s2)cn1 [Example 171, 2-[6-(Methylthio)-3-pyridyl]-4H-1,3-benzothiazine-4-one] | 167.9 to 169.9 °C
O=c1nc(-c2c[nH]c3ccccc23)sc2ccccc12 [Example 172, 2-(1H-Indol-3-yl)-4H-1,3-benzothiazine-4-one] | 276.5 to 277 °C
COc1ccc2c(=O)nc(-c3cccc(CCC(=O)OC(C)(C)C)n3)sc2c1 [Example 173, tert-Butyl 3-[6-(7-methoxy-4-oxo-4H-1,3-benzothiazin-2-yl)-2-pyridyl]propanoate] | 134.5 to 135.4 °C
COc1ccc2c(=O)nc(-c3cccc(CCC(=O)O)n3)sc2c1 [Example 174, 3-[6-(7-Methoxy-4-oxo-4H-1,3-benzothiazin-2-yl)-2-pyridyl]propionic acid] | 234.2 to 235.2 °C
Cc1ccc2c(=O)nc(-c3cccc(CCC(=O)OC(C)(C)C)n3)sc2c1 [Example 175, tert-Butyl 3-[6-(7-methyl-4-oxo-4H-1,3-benzothiazin-2-yl)-2-pyridyl]propanoate] | 134.8 to 134.9 °C
Cc1ccc2c(=O)nc(-c3cccc(CCC(=O)O)n3)sc2c1 [Example 176, 3-[6-(7-Methyl-4-oxo-4H-1,3-benzothiazin-2-yl)-2-pyridyl]propionic acid] | 221.9 to 222.5 °C
CC(C)(C)OC(=O)CCc1cccc(-c2nc(=O)c3ccc(C(F)(F)F)cc3s2)n1 [Example 177, tert-Butyl 3-[6-(4-oxo-7-trifluoromethyl-4H-1,3-benzothiazin-2-yl)-2-pyridyl]propanoate] | 148.5 to 149.4 °C
O=C(O)CCc1cccc(-c2nc(=O)c3ccc(C(F)(F)F)cc3s2)n1 [Example 178, 3-[6-(4-Oxo-7-trifluoromethyl-4H-1,3-benzothiazin-2-yl)-2-pyridyl]propionic acid] | 192.9 to 193.1 °C
CC(C)(C)OC(=O)CCc1cccc(-c2nc(=O)c3ccc(F)cc3s2)n1 [Example 181, tert-Butyl 3-[6-(7-fluoro-4-oxo-4H-1,3-benzothiazin-2-yl)-2-pyridyl]propanoate] | 158.5 to 159.5 °C
O=C(O)CCc1cccc(-c2nc(=O)c3ccc(F)cc3s2)n1 [Example 182, 3-[6-(7-Fluoro-4-oxo-4H-1,3-benzothiazin-2-yl)-2-pyridyl]propionic acid] | 215 to 217 °C
CC(C)(C)OC(=O)CCc1ccnc(-c2nc(=O)c3ccc(Cl)cc3s2)c1 [Example 183, tert-Butyl 3-[2-(7-chloro-4-oxo-4H-1,3-benzothiazin-2-yl)-4-pyridyl]propanoate] | 151.8 to 152.1 °C
CC(C)(C)OC(=O)CCc1ccnc(-c2nc(=O)c3ccc(F)cc3s2)c1 [Example 184, tert-Butyl 3-[2-(7-fluoro-4-oxo-4H-1,3-benzothiazin-2-yl)-4-pyridyl]propanoate] | 137.6 to 138.1 °C
O=C(O)CCc1ccnc(-c2nc(=O)c3ccc(Cl)cc3s2)c1 [Example 185, 3-[2-(7-Chloro-4-oxo-4H-1,3-benzothiazin-2-yl)-4-pyridyl]propionic acid] | 262.9 to 263.5 °C
O=C(O)CCc1ccnc(-c2nc(=O)c3ccc(F)cc3s2)c1 [Example 186, 3-[2-(7-Fluoro-4-oxo-4H-1,3-benzothiazin-2-yl)-4-pyridyl]propionic acid] | 240 °C (dec.)
CC(C)(C)OC(=O)CCc1ccnc(-c2nc(=O)c3ccc(Br)cc3s2)c1 [Example 187, tert-Butyl 3-[2-(7-bromo-4-oxo-4H-1,3-benzothiazin-2-yl)-4-pyridyl]propanoate] | 172.9 to 173.7 °C
